# pIC50: −log10 of the molar value.
# Target: T1, Recombinant human ATX (Homo sapiens, UniProt Q13822)
# T1 construct: made in house; host or cells: human embryonic kidney (HEK) cells
# Assay: Assessing ATX inhibition: released choline, Amplex Red fluorescence
# Type: biochemical
# Conditions: ATX 10 nM, LPC 18:1 10 μM, pre-incubated with ATX at 37° C. for 20 minutes; Table 1, exemplified compounds; read-out: IC50
# Experimental: LPC (oleoyl (18:1)) was purchased from Avanti Polar Lipids (Alabaster; AL) and solubilized in methanol to 20 mM. Amplex Red was obtained from Invitrogen Life Technologies (Paisley, UK) and dissolved in DMSO to 10 mM. Choline oxidase and horseradish peroxidase (HRP) were obtained from Sigma Aldrich (Dorset, UK) and dissolved in HBSS to 20 U/ml and 200 U/ml respectively. All reagents were stored at −20° C. in single use aliquots. All experimental measurements were performed in assay buffer made up immediately prior to use (HBSS, 0.01% BSA essentially fatty acid free).
# Recombinant human ATX was prepared at Novartis (Basel, CH) in a human embryonic kidney (HEK) cell preparation, and stored in single use aliquots of […] (26 μM) stocks stored at −80° C.
# All experimental measurements were performed in black 384 well polystyrene (low volume, round bottom, Corning (3676)) plates. PerkinElmer EnVision (Fluorescence Intensity/Absorbance Monochromator) or Tecan Infinite 200 PRO series plate reader was used to detect change in fluorescent intensity.
# ATX activity was determined by measurement of released choline in reactions containing ATX (10 nM), choline oxidase (0.1 U/ml), HRP (100 U/ml), amplex red (50 μM) and LPC 18:1 (10 μM). Compounds of the invention were prepared as 10 point serial dilutions from 1 μM in duplicate and pre-incubated with ATX at 37° C. for 20 minutes prior to the addition of remaining reagents. The liberated choline was measured from changes in fluorescence intensity (λex 530 nm, λem 590 nm) of the product resurofin at 37° C. every 2 minutes over a 40-minute period. ATX activity was measured as a slope of the linear portion of the progress curve, typically between 14 to 24 minutes.
# Slope data was exported to Graphpad prism (Graphpad software, San Diego, Calif.) where data was fitted to equation 1.
# Y=Bottom+(Top−Bottom)/(1+10̂((Log IC50−X)*HillSlope)) Equation 1: […]
row,SMILES,pIC50
1,"CN(CCCN1CCN(C(=O)OCc2cc(Cl)cc(Cl)c2)CC1)C(=O)c1c[nH]c(=O)o1 [Example 26, 3,5-Dichlorobenzyl 4-(3-(N-methyl-2-oxo-2,3-dihydrooxazole-5-carboxamido)propyl)piperazine-1-carboxylate]",6.81
2,CC1CC(CNC(=O)CCc2cc(O)no2)CCN1C(=O)OCc1cc(Cl)cc(Cl)c1 (stereo not drawn) [Example 5],6.50
3,"O=C(CCc1cc(O)no1)NCCC1CCN(C(=O)OCc2cc(Cl)cc(Cl)c2)CC1 [Example 22, 3,5-Dichlorobenzyl 4-(2-(3-(3-hydroxyisoxazol-5-yl)propanamido)ethyl)piperidine-1-carboxylate]",6.23
4,"CN(CCC1CCN(C(=O)OCc2cc(Cl)cc(Cl)c2)CC1)C(=O)c1noc(=O)[nH]1 [Example 28, 3,5-Dichlorobenzyl 4-(2-(N-methyl-5-oxo-4,5-dihydro-1,2,4-oxadiazole-3-carboxamido)ethyl)piperidine-1-carboxylate]",6.10
5,"O=C(O)CCCCCCC(=O)NC1CCN(C(=O)OCc2cc(Cl)cc(Cl)c2)CC1 [Example 40, 8-((1-(((3,5-Dichlorobenzyl)oxy)carbonyl)piperidin-4-yl)amino)-8-oxooctanoic acid]",6.87

# Now from value to compound:
row,pIC50,SMILES
1,8.30,"Cc1cc(COC(=O)N2CCC(NC(=O)CCCc3c[nH]nn3)CC2)cc(C(F)(F)F)c1 [Example 62, 3-Methyl-5-(trifluoromethyl)benzyl 4-(4-(1H-1,2,3-triazol-4-yl)butanamido)piperidine-1-carboxylate]"
2,7.89,"Cc1cc(C#N)cc(COC(=O)N2CCC(NC(=O)CCCc3c[nH]nn3)CC2)c1 [Example 71, 3-Cyano-5-methylbenzyl 4-(4-(1H-1,2,3-triazol-4-yl)butanamido)piperidine-1-carboxylate]"
3,7.59,"N#Cc1cc(Cl)cc(COC(=O)N2CCC(NC(=O)CCc3c[nH]nn3)CC2)c1 [Example 65, 3-Chloro-5-cyanobenzyl 4-(3-(1H-1,2,3-triazol-4-yl)propanamido)piperidine-1-carboxylate]"
4,8.22,"Cc1cc(C)cc(COC(=O)N2CCC(NC(=O)CCCc3c[nH]nn3)CC2)c1 [Example 51, 3,5-Dimethyl benzyl 4-(4-(1H-1,2,3-triazol-4-yl)butanamido)piperidine-1-carboxylate]"

# Source: patent US20140171404A1, “Autotaxin inhibitors” (NOVARTIS AG, priority 2012, published 2014)
